Laboratory results as given in ChEMBL document CHEMBL6121047, “Design, Synthesis, and Evaluation of Selective PDE4 Inhibitors for the Therapy of Pulmonary Injury” (J Med Chem, 2025).
Calls of active or inactive are those of the source. The rule behind the calls is not given here.

Experiments:
[1] = tested on: HepG2; assay: Cytotoxicity against human HepG2 cells assessed as reduction in cell viability incubated for 24 hrs by CCK-8 assay; assay type: toxicity, cell-based; conditions: hepg2, 24 h
[2] = Metabolic stability in monkey liver microsomes assessed as half life incubated for 4 hrs in presence of NADPH by LC-MS analysis; assay type: ADME, Macaca mulatta, Microsome; conditions: rhesus monkey
[3] = Metabolic stability in mouse liver microsomes assessed as half life incubated for 4 hrs in presence of NADPH by LC-MS analysis; assay type: ADME, Microsome
[4] = AUC (0 to t) in Sprague-Dawley rat at 5 mg/kg, iv measured upto 24 hrs by LC-MS/MS analysis; assay type: ADME, organism-based; conditions: in vivo
[5] = AUC (0 to t) in Sprague-Dawley rat at 10 mg/kg, po measured upto 24 hrs by LC-MS/MS analysis; assay type: ADME, organism-based; conditions: in vivo
[6] = AUC (0 to infinity) in Sprague-Dawley rat at 5 mg/kg, iv measured upto 24 hrs by LC-MS/MS analysis; assay type: ADME, organism-based; conditions: in vivo
[7] = Initial plasma concentration in Sprague-Dawley rat at 5 mg/kg, iv measured upto 24 hrs by LC-MS/MS analysis; assay type: ADME, organism-based
[8] = Half life in Sprague-Dawley rat at 10 mg/kg, po measured upto 24 hrs by LC-MS/MS analysis; assay type: ADME, organism-based; conditions: in vivo
[9] = Clearance in Sprague-Dawley rat at 5 mg/kg, iv measured upto 24 hrs by LC-MS/MS analysis; assay type: ADME, organism-based; conditions: in vivo
[10] = tested on: RAW264.7; assay: Anti-inflammatory activity in LPS-induced mouse RAW264.7 cells assessed as inhibition of IL-6 secretion level at 10 uM preincubated with compound for 1 hr followed by LPS addition and measured after 24 hrs by ELISA; assay type: functional, cell-based; conditions: time 25.0 hrs
[11] = tested on: BEAS-2B; assay: Anti-inflammatory activity in LPS-induced human BEAS-2B cells assessed as inhibition of TNF-alpha secretion level at 10 uM preincubated with compound for 1 hr followed by LPS addition and measured after 24 hrs by ELISA; assay type: functional, cell-based; conditions: time 25.0 hrs
[12] = Acute toxicity in Sprague-Dawley rat assessed as increase in body weight at 1 g/Kg, po administered via gavage and measured on day 14; assay type: organism-based; conditions: in vivo, 1000 mg/kg
[13] = Acute toxicity in Sprague-Dawley rat assessed as pathological changes in liver at 1 g/Kg, po administered via gavage by H and E staining based analysis; assay type: organism-based; conditions: in vivo, 1000 mg/kg
[14] = Acute toxicity in Sprague-Dawley rat assessed as pathological changes in lung at 1 g/Kg, po administered via gavage by H and E staining based analysis; assay type: organism-based; conditions: in vivo, 1000 mg/kg
[15] = Acute toxicity in Sprague-Dawley rat assessed as effect on apparent heart coefficient change at 1 g/Kg, po administered via gavage; assay type: organism-based; conditions: in vivo, 1000 mg/kg
[16] = Acute toxicity in Sprague-Dawley rat assessed as effect on apparent liver coefficient change at 1 g/Kg, po administered via gavage; assay type: organism-based; conditions: in vivo, 1000 mg/kg
[17] = Acute toxicity in Sprague-Dawley rat assessed as effect on apparent lung coefficient change at 1 g/Kg, po administered via gavage; assay type: organism-based; conditions: in vivo, 1000 mg/kg
[18] = Acute toxicity in Sprague-Dawley rat assessed as effect on apparent spleen coefficient change at 1 g/Kg, po administered via gavage; assay type: organism-based; conditions: in vivo, 1000 mg/kg
[19] = Toxicity in female Beagle dog assessed as emesis at 1 to 3 mg/kg, po administered once via gavage and measured within 24 hrs; assay type: organism-based, Canis lupus familiaris; conditions: in vivo, dose 1-3 mg/kg
[20] = Toxicity in female Beagle dog assessed as drug tolerance at 1 to 3 mg/kg, po administered once via gavage and measured within 24 hrs; assay type: organism-based, Canis lupus familiaris; conditions: in vivo, dose 1-3 mg/kg
[21] = Toxicity in female Beagle dog assessed as side effects at 1 to 3 mg/kg, po administered once via gavage and measured within 24 hrs; assay type: organism-based, Canis lupus familiaris; conditions: in vivo, dose 1-3 mg/kg
[22] = tested on: Mus musculus; assay: Anti-inflammatory activity against LPS-induced acute lung injury male BALB/c mouse model assessed as relaxation of alveolar in lung at 8 to 32 mg/kg administered once a day via gavage for 7 days followed by LPS stimulation and measured after 24 hrs by H and E staining based microscopic analysis; assay type: functional, organism-based; conditions: dose 8-32 mg/kg, time 192.0 hrs
[23] = tested on: Mus musculus; assay: Antifibrotic activity against LPS-induced acute lung injury male BALB/c mouse model assessed as decrease in collagen deposition at 8 to 32 mg/kg administered once a day via gavage for 7 days followed by LPS stimulation and measured after 24 hrs by masson staining based microscopic analysis; assay type: functional, organism-based; conditions: dose 8-32 mg/kg, time 192.0 hrs
[24] = tested on: Mus musculus; assay: Anti-inflammatory activity against cigarette-smoke/LPS-induced COPD male C57BL/6 mouse model assessed as reduction in MMP9 level in BALF at 5 mg/kg pretreated with cigarette smoke exposure for 21 weeks with subsequent LPS induction twice on the first and 15th day followed by compound administration every day via gavage for 4 weeks; assay type: functional, organism-based
[25] = tested on: Mus musculus; assay: Anti-inflammatory activity against cigarette-smoke/LPS-induced COPD male C57BL/6 mouse model assessed as reduction in bronchiole thickness at 5 mg/kg pretreated with cigarette smoke exposure for 21 weeks with subsequent LPS induction twice on the first and 15th day followed by compound administration every day via gavage for 4 weeks by H and E staining based microscopic analysis; assay type: functional, organism-based
[26] = tested on: Mus musculus; assay: Anti-inflammatory activity against cigarette-smoke/LPS-induced COPD male C57BL/6 mouse model assessed as decrease in collagen formation at 5 mg/kg pretreated with cigarette smoke exposure for 21 weeks with subsequent LPS induction twice on the first and 15th day followed by compound administration every day via gavage for 4 weeks by masson staining based microscopic analysis; assay type: functional, organism-based
[27] = tested on: Mus musculus; assay: Enhancement of sputum secretion in male BALB/c mouse model assessed as increase in phenol red secretion in BALF at 4 to 32 mg/kg administered every day via gavage for 7 days followed by phenol red administration at 1 hrs post last dose and measured after 30 mins; assay type: functional, organism-based; conditions: dose 4-32 mg/kg, time 169.5 hrs
[28] = tested on: Mus musculus; assay: Antitussive activity in male BALB/c mouse model assessed as delay in cough incubation period at 32 mg/kg administered every day via gavage for 7 days at 1 hrs post last dose and measured within 3 min; assay type: functional, organism-based; conditions: time 169.05 hrs
[29] = tested on: Mus musculus; assay: Antitussive activity in male BALB/c mouse model assessed as reduction in cough frequency at 32 mg/kg administered every day via gavage for 7 days at 1 hrs post last dose and measured within 3 min; assay type: functional, organism-based; conditions: time 169.05 hrs
[30] = tested on: RAW264.7; assay: Anti-inflammatory activity in LPS-induced mouse RAW264.7 cells assessed as decrease in p-p38 MAPK protein level by Western blotting analysis; assay type: functional, cell-based
[31] = tested on: RAW264.7; assay: cells; conditions: Mus musculus
[32] = tested on: RAW264.7; assay: cells; conditions: Mus musculus; remark: listed apart in the source

In the case of `O=C(Nc1nccs1)c1cccc2[nH]c(-c3ccc(OC(F)F)c(OCC4CC4)c3)nc12`, the Activity [1] is reported as “Non-toxic”, the half-life [2] is reported as 44.2 min and the half-life [3] is reported as 40.2 min. The AUC(0-t) at 24 h [4] was 23200 ng·h/mL, the AUC(0-t) at 24 h [5] was 2130 ng·h/mL and the AUC(0-inf) [6] was 23200 ng·h/mL. It also gave a C0 at 24 h [7] of 38100 ng/mL, a half-life [8] of 225 min and a clearance [9] of 3.62 mL/min/kg. For the same compound, the Activity [10] was “Active”, the Activity [11] was “Active” and the Activity [12] was “Non-toxic”. The Activity [13] was “Non-toxic”, the Activity [14] was “Non-toxic” and the Activity [15] was “Non-toxic”. The Activity [16] was “Non-toxic”, the Activity [17] was “Non-toxic” and the Activity [18] was “Non-toxic”. For the same compound, the Activity [19] was “Non-toxic”, the Activity [20] was “Non-toxic” and the Activity [21] was “Non-toxic”. The Activity [22] was “Active”, the Activity [23] was “Active” and the Activity [24] was “Active”. The Activity [25] was “Active”, the Activity [26] was “Active” and the Activity [27] was “Active”. The Activity [28] was “Active”, the Activity [29] was “Active” and the Activity [30] was “Active”. For the same compound, the IC50 [31] was 29.5 µM and the IC50 [32] was 30.1 µM.
